Experimental data published in patent publication US9718828B2 (MERCK SHARP & DOHME CORP., priority 2011, dated 2017).
Counter-ions that a name gives are not always drawn. Like-named read-outs stand apart in the source and are kept apart here.

Target: Btk enzyme (His-Btk) (Homo sapiens (Human), UniProt Q06187)
Test: Btk enzyme activity, IMAP fluorescence polarization assay (Assay Method A)
[1] = read-out: EC50 Btk activity values - Assay Method A, IMAP-FP, 60 min pre-incubation, 5 μM ATP, class 100-1000 is given as ≧100 nM-<1 μM

Btk enzyme (His-Btk), sequence (Q06187 whole entry): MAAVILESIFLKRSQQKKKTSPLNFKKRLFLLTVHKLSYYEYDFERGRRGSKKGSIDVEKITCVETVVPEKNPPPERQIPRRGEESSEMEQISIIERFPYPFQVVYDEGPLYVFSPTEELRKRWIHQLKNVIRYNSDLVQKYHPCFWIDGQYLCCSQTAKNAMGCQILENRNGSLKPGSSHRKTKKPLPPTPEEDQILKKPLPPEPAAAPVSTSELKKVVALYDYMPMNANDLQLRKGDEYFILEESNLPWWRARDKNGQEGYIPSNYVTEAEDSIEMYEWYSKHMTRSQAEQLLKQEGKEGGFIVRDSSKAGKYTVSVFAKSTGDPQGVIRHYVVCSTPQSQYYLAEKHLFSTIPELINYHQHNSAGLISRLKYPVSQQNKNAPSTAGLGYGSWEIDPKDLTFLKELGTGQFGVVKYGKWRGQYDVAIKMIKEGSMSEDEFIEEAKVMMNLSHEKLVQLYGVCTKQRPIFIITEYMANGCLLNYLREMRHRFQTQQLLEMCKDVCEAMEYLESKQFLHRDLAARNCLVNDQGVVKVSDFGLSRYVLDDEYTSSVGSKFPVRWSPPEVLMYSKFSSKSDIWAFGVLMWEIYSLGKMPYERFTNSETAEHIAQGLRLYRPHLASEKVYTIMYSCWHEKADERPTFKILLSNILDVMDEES

Compound	EC50 [1]	EC50	also measured
C[C@H]1CC[C@@H](c2nc(-c3ccc(C(=O)Nc4ccccn4)cc3)c3c(N)nccn23)CN1C(=O)CC1CC1 (relative stereo) [Example 191, 4-(8-amino-3-((cis)-1-(2-cyclopropylacetyl)-6-methylpiperidin-3-yl)imidazo[1,5-a]pyrazin-1-yl)-N-(pyridin-2-yl)benzamide, TFA salt]	< 10 nM		
CC1(C(=O)N2CCC[C@@H](c3nc(-c4ccc(C(=O)Nc5cc(C(F)(F)F)ccn5)cc4)c4c(N)nccn34)C2)CCC1 [Example 70, (R)-4-(8-amino-3-(1-(1-methylcyclobutanecarbonyl)piperidin-3-yl)imidazo[1,5-a]pyrazin-1-yl)-N-(4-(trifluoromethyl)pyridin-2-yl)benzamide]		< 10 nM	
COCCC(=O)N1CCC[C@@H](c2nc(-c3ccc(C(=O)Nc4ccccn4)cc3C(F)(F)F)c3c(N)nccn23)C1 [Example 283, 4-(8-amino-3-((R)-1-(3-methoxypropanoyl)piperidin-3-yl)imidazo[1,5-a]pyrazin-1-yl)-N-(pyridin-2-yl)-3-(trifluoromethyl)benzamide, TFA salt]			EC50 (read-out: EC50 Btk activity values - Assay Method A, IMAP-FP, 60 min pre-incubation, 5 μM ATP): ≥ 1000 nM
CC(C)(F)C(=O)N1CCC[C@@H](n2nc(-c3ccc(C(=O)Nc4cc(C(F)(F)F)ccn4)cc3)c3c(N)ncnc32)C1 [Example 270, (R)-4-(4-amino-1-(1-(2-fluoro-2-methylpropanoyl)piperidin-3-yl)-1H-pyrazolo[3,4-d]pyrimidin-3-yl)-N-(4-(trifluoromethyl)pyridin-2-yl)benzamide]		10 to 100 nM	
CCCc1ccnc(NC(=O)c2ccc(-c3nc([C@H]4CC[C@H](O)CC4)n4ccnc(N)c34)cc2F)c1 [Example 13, 4-(8-amino-3-((trans)-4-hydroxycyclohexyl)imidazo[1,5-a]pyrazin-1-yl)-2-fluoro-N-(4-propylpyridin-2-yl)benzamide]	< 10 nM		
CC(CNC(=O)C1(C)COC1)c1nc(-c2ccc(C(=O)Nc3cc(C(F)(F)F)ccn3)cc2)c2c(N)nccn12 (stereo not drawn) [Example 131, N-(2-(8-amino-1-(4-(4-(trifluoromethyl)pyridin-2-ylcarbamoyl)phenyl)imidazo[1,5-a]pyrazin-3-yl)propyl)-3-methyloxetane-3-carboxamide]		< 10 nM	
CCCc1ccnc(NC(=O)c2ccc(-c3nc([C@H]4CC[C@H](O)CC4)n4ccnc(N)c34)cc2)c1 [Example 3, 4-(8-amino-3-((trans)-4-hydroxycyclohexyl)imidazo[1,5-a]pyrazin-1-yl)-N-(4-propylpyridin-2-yl)benzamide]	< 10 nM		
CC1(C(=O)N[C@H]2CCCN(c3nc(-c4ccc(C(=O)Nc5cc(C(F)(F)F)ccn5)cc4)c4c(N)nccn34)C2)COC1 [Example 218, (S)-N-(1-(8-amino-1-(4-(4-(trifluoromethyl)pyridin-2-ylcarbamoyl)phenyl)imidazo [1,5-a]pyrazin-3-yl)piperidin-3-yl)-3-methyloxetane-3-carboxamide]	< 10 nM		
CO[C@H]1CC[C@@H](c2nc(-c3ccc(C(=O)Nc4cc(C(F)(F)F)ccn4)cc3)c3c(N)nccn32)CC1 [Example 40, 4-(8-amino-3-((cis)-4-methoxycyclohexyl)imidazo [1,5-a]pyrazin-1-yl)-N-(4-(trifluoromethyl)pyridin-2-yl)benzarnide]	< 10 nM		
COCCC(=O)N[C@@H]1CCCN(c2nc(-c3ccc(C(=O)Nc4cc(C(F)(F)F)ccn4)cc3)c3c(N)nccn23)C1 [Example 219, (R)-4-(8-amino-3-(3-(3-methoxypropanamido)piperidin-1-yl)imidazo[1,5-a]pyrazin-1-yl)-N-(4-(trifluoromethyl)pyridin-2-yl)benzamide]	< 10 nM		
CCOCCC(=O)N1C[C@H](c2nc(-c3ccc(C(=O)Nc4ccccn4)cc3)c3c(N)nccn23)CC[C@@H]1C (relative stereo) [Example 206, 4-(8-amino-3-((cis)-1-(3-ethoxypropanoyl)-6-methylpiperidin-3-yl)imidazo[1,5-a]pyrazin-1-yl)-N-(pyridin-2-yl)benzamide, TFA salt]	< 10 nM		
CC1(C(=O)N2CCC[C@@H](c3nc(-c4ccc(C(=O)Nc5cc(C(F)(F)F)ccn5)cc4)c4c(N)ncc(Cl)n34)C2)COC1 [Example 301, (R)-4-(8-amino-5-chloro-3-(1-(3-methyloxetane-3-carbonyl)piperidin-3-yl)imidazo[1,5-a]pyrazin-1-yl)-N-(4-(trifluoromethyl)pyridin-2-yl)benzamide]	< 10 nM		
Nc1ncc(/C=C/c2ccccc2)n2c(C3CCOCC3)nc(-c3ccc(C(=O)Nc4ccccn4)cc3)c12 [Example 313, (E)-4-(8-amino-5-styryl-3-(tetrahydro-2H-pyran-4-yl)imidazo[1,5-a]pyrazin-1-yl)-N-(pyridin-2-yl)benzamide]	< 10 nM		
CC(C)(C#N)C(=O)N[C@@H]1CCC[C@@H](c2nc(-c3ccc(C(=O)Nc4cc(C(F)(F)F)ccn4)cc3)c3c(N)nccn23)C1 (relative stereo) [Example 162, 4-(8-amino-3-((trans)-3-(2-cyano-2-methylpropanamido)-cyclohexyl)imidazo[1,5-a]pyrazin-1-yl)-N-(4-(trifluoromethyl)pyridin-2-yl)benzamide]		< 10 nM	
CCOCCC(=O)N1CCC[C@@H](n2nc(-c3ccc(C(=O)Nc4cc(C(F)(F)F)ccn4)cc3)c3c(N)ncnc32)C1 [Example 281, (R)-4-(4-amino-1-(1-(3-ethoxypropanoyl)piperidin-3-yl)-1H-pyrazolo[3,4-d]pyrimidin-3-yl)-N-(4-(trifluoromethyl)pyridin-2-yl)benzamide]	< 10 nM		
Nc1nccn2c([C@@H]3CCCN(CC4CCOC4)C3)nc(-c3ccc(C(=O)Nc4cc(C5CC5)ccn4)cc3)c12 (stereo partly drawn) [Example 145, 4-(8-amino-3-((3R)-1-((tetrahydrofuran-3-yl)methyl)piperidin-3-yl)imidazo[1,5-a]pyrazin-1-yl)-N-(4-cyclopropylpyridin-2-yl)benzamide, TFA salt]		10 to 100 nM	
CCCc1ccnc(NC(=O)c2ccc(-c3nc([C@H]4CC[C@@H](OC)CC4)n4ccnc(N)c34)cc2)c1 [Example 42, 4-(8-amino-3-((cis)-4-methoxycyclohexyl)imidazo [1,5-a]pyrazin-1-yl)-N-(4-propylpyridin-2-yl)benzamide]	< 10 nM		
CO[C@@H](C)C(=O)N1CCC[C@@H](c2nc(-c3ccc(C(=O)Nc4ccccn4)cc3)c3c(N)nccn23)C1 [Example 57, 4-(8-amino-3-((R)-1-((S)-2-methoxypropanoyl)piperidin-3-yl)imidazo[1,5-a]pyrazin-1-yl)-N-(pyridin-2-yl)benzamide]		10 to 100 nM	
Nc1nccn2c([C@@H]3CCCN(CCc4ccccc4)C3)nc(-c3ccc(C(=O)Nc4ccccn4)cc3)c12 [Example 134, (R)-4-(8-amino-3-(1-phenethylpiperidin-3-yl)imidazo[1,5-a]pyrazin-1-yl)-N-(pyridin-2-yl)benzamide, TFA salt]		10 to 100 nM	
CS(=O)(=O)CCNC(=O)C1CCCN(c2nc(-c3ccc(C(=O)Nc4cc(C(F)(F)F)ccn4)cc3)c3c(N)nccn23)C1 (stereo not drawn) [Example 240, 1-(8-amino-1-(4-(4-(trifluoromethyl)pyridin-2-ylcarbamoyl)phenyl)imidazo[1,5-a]pyrazin-3-yl)-N-(2-(methylsulfonyl)ethyl)piperidine-3-carboxamide, TFA salt]	< 10 nM		
CCC(=O)N1C2CCC1C(c1nc(-c3ccc(C(=O)Nc4ccccn4)cc3)c3c(N)nccn13)C2 (stereo not drawn) [Example 147, 4-(8-amino-3-(7-propionyl-7-azabicyclo[2.2.1]heptan-2-yl)imidazo[1,5-a]pyrazin-1-yl)-N-(pyridin-2-yl)benzamide]		100 to 1000 nM	
Nc1nccn2c([C@H]3[C@@H]4COC[C@@H]43)nc(-c3ccc(C(=O)Nc4cc(C(F)(F)F)ccn4)cc3)c12 [Example 31, 4-(8-amino-34(1R,5S,6S)-3-oxabicyclo[3.1.0]hexan-6-yl)imidazo[1,5-a]pyrazin-1-yl)-N-(4-(trifluoromethyl)pyridin-2-yl)benzamide, TFA salt]	< 10 nM		
CCNC(=O)N1CCCC(c2cc(-c3ccc(C(=O)Nc4cc(C(F)(F)F)ccn4)cc3)c3c(N)ncnn23)C1 (stereo not drawn) [Example 252, 3-(4-amino-5-(4-(4-(trifluoromethyl)pyridin-2-ylcarbamoyl)phenyl)pyrrolo[1,2-f][1,2,4]triazin-7-yl)-N-ethylpiperidine-1-carboxamide]	< 10 nM		
Cc1cnc(N)c2c(-c3ccc(C(=O)Nc4cc(C(F)(F)F)ccn4)cc3)nc([C@@H]3CCCN(C(=O)C4(C)COC4)C3)n12 [Example 306, (R)-4-(8-amino-5-methyl-3-(1-(3-methyloxetane-3-carbonyl)piperidin-3-yl)imidazo[1,5-a]pyrazin-1-yl)-N-(4-(trifluoromethyl)pyridin-2-yl)benzamide]	< 10 nM		
CCc1cnc(N)c2c(-c3ccc(C(=O)Nc4cc(C(F)(F)F)ccn4)cc3)nc([C@@H]3CCCN(C(=O)C4(C)COC4)C3)n12 [Example 308, (R)-4-(8-amino-5-ethyl-3-(1-(3-methyloxetane-3-carbonyl)piperidin-3-yl)imidazo[1,5-a]pyrazin-1-yl)-N-(4-(trifluoromethyl)pyridin-2-yl)benzamide]	< 10 nM		
CC(C)C(=O)N[C@@H]1CCC[C@@H](c2nc(-c3ccc(C(=O)Nc4cc(C(F)(F)F)ccn4)cc3)c3c(N)nccn23)C1 (relative stereo) [Example 167, 4-(8-amino-3-((trans)-3-isobutyramidocyclohexyl)imidazo [1,5-a]pyrazin-1-yl)-N-(4-(trifluoromethyl)pyridin-2-yl)benzamide]	< 10 nM		
[2H]C([2H])([2H])c1cnc(N)c2c(-c3ccc(C(=O)Nc4cc(C(F)(F)F)ccn4)cc3)nc([C@@H]3CCCN(C(=O)C4(C)COC4)C3)n12 [Example 317, (R)-4-(8-amino-5-deuteromethyl-3-(1-(3-methyloxetane-3-carbonyl)piperidin-3-yl)imidazo[1,5-a]pyrazin-1-yl)-N-(4-(trifluoromethyl)pyridin-2-yl)benzamide]		< 10 nM	
